# Laboratory results published in publication PMC4367896, “Microbial host selection affects intracellular localization and activity of alcohol-O-acetyltransferase” (Microbial Cell Factories, 2015).
# Tests used:
# Conditions in all cases: 500 mM ethanol, 0.5 mM acetyl-CoA, pH 7.4, 30 °C
# Atf-K.l = molecular target: T1, Atf-K.l (Kluyveromyces lactis, UniProt Q6CJX7); assay: headspace GC of ethyl acetate, whole cell lysate; format: biochemical
# T1 construct: gene KLLA0_F15202g; C-terminal GFP fusion (reporter); expressed in S. cerevisiae (pYKLG) and E. coli BL21(DE3) (pKLG)
# T1 sequence (Q6CJX7 1-517): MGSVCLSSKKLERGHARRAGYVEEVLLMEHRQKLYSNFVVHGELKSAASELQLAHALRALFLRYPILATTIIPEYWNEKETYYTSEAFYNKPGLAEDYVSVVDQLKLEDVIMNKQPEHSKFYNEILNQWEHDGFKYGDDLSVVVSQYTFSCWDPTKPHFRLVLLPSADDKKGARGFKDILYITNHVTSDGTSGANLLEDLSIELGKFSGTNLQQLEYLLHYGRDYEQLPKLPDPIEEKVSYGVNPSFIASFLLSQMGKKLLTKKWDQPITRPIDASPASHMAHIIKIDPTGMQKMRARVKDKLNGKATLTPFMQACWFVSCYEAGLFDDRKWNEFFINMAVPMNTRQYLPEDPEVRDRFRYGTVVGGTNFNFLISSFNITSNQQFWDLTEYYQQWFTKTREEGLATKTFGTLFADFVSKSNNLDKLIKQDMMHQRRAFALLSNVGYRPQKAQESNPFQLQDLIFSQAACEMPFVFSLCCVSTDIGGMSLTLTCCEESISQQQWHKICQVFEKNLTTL
# Atf1-S.c = molecular target: T2, Atf1-S.c (Saccharomyces cerevisiae, UniProt P40353)
# T2 sequence (P40353 1-525): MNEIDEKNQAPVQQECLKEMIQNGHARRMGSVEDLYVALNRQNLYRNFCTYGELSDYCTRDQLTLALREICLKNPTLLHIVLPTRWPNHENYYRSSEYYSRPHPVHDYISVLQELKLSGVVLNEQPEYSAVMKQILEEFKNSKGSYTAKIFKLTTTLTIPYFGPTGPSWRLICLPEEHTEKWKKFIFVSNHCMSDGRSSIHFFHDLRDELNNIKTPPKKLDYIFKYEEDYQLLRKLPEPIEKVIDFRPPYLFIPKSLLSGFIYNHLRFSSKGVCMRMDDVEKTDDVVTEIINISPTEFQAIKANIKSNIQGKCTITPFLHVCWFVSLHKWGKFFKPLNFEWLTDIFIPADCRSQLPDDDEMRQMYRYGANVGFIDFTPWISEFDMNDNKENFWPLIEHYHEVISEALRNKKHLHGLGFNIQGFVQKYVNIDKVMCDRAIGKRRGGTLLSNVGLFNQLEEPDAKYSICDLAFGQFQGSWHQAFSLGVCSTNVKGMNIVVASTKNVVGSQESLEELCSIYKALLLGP
# Atf-S.p = molecular target: T3, Atf-S.p (Saccharomyces pastorianus, UniProt Q12678); assay: headspace GC of ethyl acetate, whole cell lysate; format: biochemical
# T3 construct: gene ATF1_2; C-terminal GFP fusion (reporter); expressed in S. cerevisiae (pYSPG) and E. coli BL21(DE3) (pSPG)
# T3 sequence (Q12678 1-545): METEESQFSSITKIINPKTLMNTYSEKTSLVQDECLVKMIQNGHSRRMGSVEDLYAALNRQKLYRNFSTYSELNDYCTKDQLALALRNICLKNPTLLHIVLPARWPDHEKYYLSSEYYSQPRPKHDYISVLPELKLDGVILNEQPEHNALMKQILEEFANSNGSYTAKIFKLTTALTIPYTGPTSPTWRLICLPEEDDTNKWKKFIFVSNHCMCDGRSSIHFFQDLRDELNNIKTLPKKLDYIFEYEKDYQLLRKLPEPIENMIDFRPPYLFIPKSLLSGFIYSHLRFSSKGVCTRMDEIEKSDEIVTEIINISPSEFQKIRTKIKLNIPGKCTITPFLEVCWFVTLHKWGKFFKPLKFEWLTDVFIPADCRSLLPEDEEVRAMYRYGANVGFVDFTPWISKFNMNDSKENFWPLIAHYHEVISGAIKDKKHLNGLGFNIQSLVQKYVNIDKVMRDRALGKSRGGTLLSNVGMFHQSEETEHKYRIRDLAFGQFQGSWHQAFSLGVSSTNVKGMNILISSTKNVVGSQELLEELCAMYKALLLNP
# Atf-S.l = molecular target: T4, Atf-S.l (Solanum lycopersicum, UniProt Q6QLX4); assay: headspace GC of ethyl acetate, whole cell lysate; format: biochemical
# T4 construct: gene AAT1; C-terminal GFP fusion (reporter); expressed in S. cerevisiae (pYSLG) and E. coli BL21(DE3) (pSLG); N-terminus from primer MANILPI
# T4 sequence (Q6QLX4 1-442): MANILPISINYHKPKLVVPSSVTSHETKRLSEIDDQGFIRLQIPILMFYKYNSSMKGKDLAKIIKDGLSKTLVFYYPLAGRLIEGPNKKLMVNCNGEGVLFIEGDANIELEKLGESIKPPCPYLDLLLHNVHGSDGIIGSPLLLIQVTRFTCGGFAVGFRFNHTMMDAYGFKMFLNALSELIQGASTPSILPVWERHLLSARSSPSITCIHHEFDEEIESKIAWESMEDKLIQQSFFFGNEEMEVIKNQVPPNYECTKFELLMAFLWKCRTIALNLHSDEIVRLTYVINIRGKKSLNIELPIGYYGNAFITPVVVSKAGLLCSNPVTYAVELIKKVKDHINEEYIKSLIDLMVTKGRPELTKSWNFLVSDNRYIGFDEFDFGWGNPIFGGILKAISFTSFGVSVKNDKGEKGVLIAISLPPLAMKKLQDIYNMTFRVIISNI
# Atf-P.a = molecular target: T5, Atf-P.a (Hansenula anomala, UniProt H6UWN0); assay: headspace GC of ethyl acetate, whole cell lysate; format: biochemical
# T5 construct: gene WAN_10494; C-terminal GFP fusion (reporter); expressed in S. cerevisiae (pYPAG) and E. coli BL21(DE3) (pPAG)
# T5 sequence (H6UWN0 1-427): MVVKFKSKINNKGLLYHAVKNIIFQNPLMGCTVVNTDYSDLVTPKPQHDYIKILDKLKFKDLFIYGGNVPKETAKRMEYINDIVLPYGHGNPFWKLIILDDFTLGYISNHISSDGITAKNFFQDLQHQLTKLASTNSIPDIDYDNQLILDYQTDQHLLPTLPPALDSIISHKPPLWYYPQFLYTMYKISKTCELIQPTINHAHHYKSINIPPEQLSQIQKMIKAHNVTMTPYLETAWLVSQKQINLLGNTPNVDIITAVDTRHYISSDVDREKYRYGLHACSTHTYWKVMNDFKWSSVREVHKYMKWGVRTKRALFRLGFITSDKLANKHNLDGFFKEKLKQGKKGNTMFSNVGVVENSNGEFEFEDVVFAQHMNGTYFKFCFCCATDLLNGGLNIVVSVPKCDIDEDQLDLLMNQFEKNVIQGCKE
# Atf2-S.c = molecular target: T6, Atf2-S.c (Saccharomyces cerevisiae, UniProt P53296)
# T6 sequence (P53296 1-535): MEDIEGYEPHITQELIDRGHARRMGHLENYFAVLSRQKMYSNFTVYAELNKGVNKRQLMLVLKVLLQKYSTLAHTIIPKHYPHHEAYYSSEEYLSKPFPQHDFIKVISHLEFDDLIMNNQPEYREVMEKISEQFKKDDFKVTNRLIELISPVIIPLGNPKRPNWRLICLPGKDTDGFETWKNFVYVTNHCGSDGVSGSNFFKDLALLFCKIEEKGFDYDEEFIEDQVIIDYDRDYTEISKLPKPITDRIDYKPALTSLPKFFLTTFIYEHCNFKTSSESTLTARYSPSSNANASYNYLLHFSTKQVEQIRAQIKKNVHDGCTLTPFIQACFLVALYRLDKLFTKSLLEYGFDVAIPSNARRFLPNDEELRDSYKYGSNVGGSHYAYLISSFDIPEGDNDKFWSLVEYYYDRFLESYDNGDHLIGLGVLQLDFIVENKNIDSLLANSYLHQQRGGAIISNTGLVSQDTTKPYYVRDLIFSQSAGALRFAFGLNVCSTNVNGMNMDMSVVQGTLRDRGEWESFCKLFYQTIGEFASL
structure (smiles),measurement,setting,value
CC(=O)SCCNC(=O)CCNC(=O)[C@H](O)C(C)(C)COP(=O)(O)OP(=O)(O)OC[C@H]1O[C@@H](n2cnc3c(N)ncnc32)[C@H](O)[C@@H]1OP(=O)(O)O [acetyl-CoA],"headspace GC of ethyl acetate, whole cell lysate",Atf-K.l,AATase activity was measured using ethanol and acetyl-CoA as substrates
same,"headspace GC of ethyl acetate, whole cell lysate",Atf1-S.c,AATase activity was measured using ethanol and acetyl-CoA as substrates
same,"headspace GC of ethyl acetate, whole cell lysate",Atf-S.p,AATase activity was measured using ethanol and acetyl-CoA as substrates
same,"headspace GC of ethyl acetate, whole cell lysate",Atf-S.l,AATase activity was measured using ethanol and acetyl-CoA as substrates
same,"headspace GC of ethyl acetate, whole cell lysate",Atf-P.a,AATase activity was measured using ethanol and acetyl-CoA as substrates
same,"headspace GC of ethyl acetate, whole cell lysate",Atf2-S.c,AATase activity was measured using ethanol and acetyl-CoA as substrates
